Among the data in paper PMC5445127 (Frontiers in Plant Science, 2017) are Kd values, retold here.

The target of assay [1] is T1, ZmSIRK1 (ZmSIRK1^737-1045) (Zea mays, UniProt K7VIQ3).
T1 construct: gene ZEAMMB73_Zm00001d047570; kinase domain Ser737-Ser1045 (full length 1045 aa; KD 762-1040), E. coli BL21(DE3)-R3-pRARE2, pNIC28a-Bsa4, 6xHis tag removed by TEV; forward primer encodes S737-V-V-F-T-A-E (translated); motifs 907DYS909, 933PPE935; model residues 744-972, 977-1000, 1009-1045
Description: isothermal titration calorimetry. It counts as binding. A general note: Isothermal titration calorimetry measures the heat released or taken up as one component is titrated into another.

In assay [2] the target is T1, ZmSIRK1 (ZmSIRK1^737-1045). Put plainly: isothermal titration calorimetry; co-crystal structure. It counts as binding.

T1 sequence (K7VIQ3 entry or part of it): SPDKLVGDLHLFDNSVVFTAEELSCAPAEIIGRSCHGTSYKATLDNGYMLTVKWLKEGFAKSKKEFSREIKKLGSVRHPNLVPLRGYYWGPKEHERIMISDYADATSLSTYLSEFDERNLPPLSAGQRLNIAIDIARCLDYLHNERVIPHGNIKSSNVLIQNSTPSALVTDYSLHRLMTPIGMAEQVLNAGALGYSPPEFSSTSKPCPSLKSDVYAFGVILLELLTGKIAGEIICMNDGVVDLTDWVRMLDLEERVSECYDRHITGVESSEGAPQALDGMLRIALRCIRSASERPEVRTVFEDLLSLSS

Broadly, the Kd is a measure of binding affinity in units of concentration. A low value points to higher affinity. Take `CC(C)n1nc(-c2ccc3oc(N)nc3c2)c2c(N)ncnc21` [INK 128]: binding in assay [1] was put at a Kd of 1760 nM.
In turn, `Nc1ncnc2c1ncn2[C@@H]1O[C@H](COP(=O)(O)OP(=O)(O)NP(=O)(O)O)[C@@H](O)[C@H]1O` [AMP-PNP] showed a Kd in assay [2] of 2800 nM.
`Nc1ncnc2c1c(-c1cnc3[nH]ccc3c1)nn2C1CCCC1` [PP121] returned a Kd in assay [1] of 1990 nM.
